Assay results from patent US20250018049A1, “COMPOUNDS FOR DEGRADING CYCLIN-DEPENDENT KINASE 2 VIA UBIQUITIN PROTEOSOME PATHWAY” (NIKANG THERAPEUTICS, INC., priority 2020, published 2025).

How the values were obtained:
CDK2 [1] = molecular target: T1, CDK2 (Homo sapiens, UniProt P24941); test: NanoBRET CDK2 engagement assay; type: cell-based; design: expressed in transfected cells; conditions: OVCAR3 cells with stable CDK2-Luciferase vector, 24 hours treatment
Protocol: OVCAR3 cells with stable transfection of CDK2-Luciferase vector were seeded into 96-well plate at a density of 20,000 cells per well, 50 μL Opti-MEM medium supplemented with 1% FBS. Following morning, cells were treated with compounds of the disclosure, with starting concentration at 3 μM and ½ log dilution down to 0.3 nM for 24 hours at 37° C. DMSO treatment serves as control. Compound engagement was then measured using NanoBRE™ Kinase Kit from Promega (Part Number: CS1810C122, NanoBRET™ TE Kinase Kit #10, 1K) following manufacturer's instruction. For 24 hours treatment, tracer was added only for the last 2 hours. Briefly, 2.5 μL of complete 20× NanoBRET Tracer was added to the cells in suspension. Immediately prior to BRET measurements, prepare 3× Complete NanoBRET® Nano-Glo® Substrate in Opti-MEM without serum and phenol red. Without any delay, 25 μL per well of 3× Complete NanoBRET™ Nano-Glo® Substrate for a 96-well plate was added and mixed well. Signal was then read on a CLARIOstar® plate reader (measure donor emission (e.g., 450 nm) and acceptor emission (e.g., 610 nm or 630 nm) using a NanoBRET™-compatible luminometer. Target engagement was calculated with DMSO treatment as 100% signal, and IC50 was calculated by GraphPad Prism 9.

CDK2 [2] = molecular target: T1, CDK2; test: Phospho-Rb HTRF measurement in OVCAR3 cells (inhibition of CDK2); type: cell-based; design: High-Throughput Measurement of Cellular Endogenous CDK2; endogenous in cells; host or cells: OVCAR3; conditions: pRB(S807/811) assay, 24 h compound treatment
Protocol: Phosphorylation of RB protein at S780 and S807/811 were measured using HTRF phospho-RB cellular kits (Cat #64RBS780PEG and 64RBS807PEG) from Cisbio.
On Day 1, OVCAR3 or KYSE520 cells were seeded into 96-well tissue-culture treated plates at 20,000 cells/well in 200 μL and incubated overnight at 37° C. in CO2 atmosphere. On Day 2, the cells were treated with test compounds at concentrations from 0.3 to 10,000 nM using HP D300 digital dispenser. Twenty-four hours after compound treatment, cell culture media was removed by flicking the plate and tapping the plate against clean paper towel. Immediately 30 μL 1× lysis buffer was supplemented from the kit and the plate was incubated at room temperature on shaker for 30 min. After homogenization by pipetting up and down, 8 μL cell lysate from 96-well cell culture plate was transferred to 384-well small volume white detection plate. 2 μL premixed detection solution was added and the plate was covered with sealer. To prepare the detection solution, d2 conjugated-phospho-RB antibody and Eu-cryptate conjugated phosphor-RB antibody were diluted into detection buffer following manufacturer's instruction. Detection plates were incubated for 4 h at room temperature and read on ClarioStar (BMG Labtech) in TR-FRET mode (665 nM and 620 nM). The TR-FRET ratio (665 nM/620 nM) was plotted against the compound concentration and normalized to DMSO controls. Half maximal inhibition concentration (IC50) values are calculated with a four-parameter logistic fit using GraphPad Prism (version 8; La Jolla, CA).

Row | Structure (SMILES) | IC50 (CDK2 [1]) [nM] | IC50 (CDK2 [2]) [nM]
1 | O=C1CCC(N2Cc3c(OCCN4CC(Oc5cccc(S(=O)(=O)N6CCC(Nc7ncc8ccc(=O)n(C9CCCC9)c8n7)CC6)c5)C4)cccc3C2=O)C(=O)N1 (stereo not drawn) [Compound 27, 3-(4-(2-(3-(3-((4-((8-cyclopentyl-7-oxo-7,8-dihydropyrido[2,3-d]pyrimidin-2-yl)amino)-piperidin-1-yl)sulfonyl)phenoxy)azetidin-1-yl)-ethoxy)-1-oxoisoindolin-2-yl)piperidine-2,6-dione] | 334 | 882
2 | O=C1CCC(N2Cc3cc(CN4CC(Oc5cccc(S(=O)(=O)N6CCC(Nc7ncc8ccc(=O)n(C9CCCC9)c8n7)CC6)c5)C4)ccc3C2=O)C(=O)N1 (stereo not drawn) [Compound 67, 3-(5-((3-(3-((4-((8-cyclopentyl-7-oxo-7,8-dihydro-pyrido[2,3-d]pyrimidin-2-yl)amino)piperidin-1-yl)sulfonyl)phenoxy)azetidin-1-yl)methyl)-1-oxoisoindolin-2-yl)piperidine-2,6-dione] | 150 | 27
3 | Cn1c(=O)n(C2CCC(=O)NC2=O)c2cccc(C#CCOC3CCN(S(=O)(=O)N4CCC(Nc5ncc6ccc(=O)n(C7CCCC7)c6n5)CC4)CC3)c21 (stereo not drawn) [Compound 14, 3-(4-(3-((1-((4-((8-cyclopentyl-7-oxo-7,8-dihydropyrido[2,3-d]pyrimidin-2-yl)amino)-piperidin-1-yl)sulfonyl)piperidin-4-yl)oxy)prop-1-yn-1-yl)-3-methyl-2-oxo-2,3-dihydro-1H-benzo[d]imidazol-1-yl)piperidine-2,6-dione] | 668 | 633
4 | O=C1CCC(N2Cc3cc(N4C5CCC4CN(Cc4cccc(S(=O)(=O)N6CCC(Nc7ncc8ccc(=O)n(C9CCCC9)c8n7)CC6)c4)C5)ccc3C2=O)C(=O)N1 (stereo not drawn) [Compound 52, 3-(5-(3-(3-((4-((8-cyclopentyl-7-oxo-7,8-dihydropyrido[2,3-d]pyrimidin-2-yl)amino)-piperidin-1-yl)sulfonyl)benzyl)-3,8-diazabicyclo-[3.2.1]octan-8-yl)-1-oxoisoindolin-2-yl)piperidine-2,6-dione] | 499 | 1420
5 | O=C1CCC(N2C(=O)c3cccc(NCCOCCOCCNS(=O)(=O)N4CCC(Nc5ncc6ccc(=O)n(C7CCCC7)c6n5)CC4)c3C2=O)C(=O)N1 (stereo not drawn) [Compound 9, 4-((8-cyclopentyl-7-oxo-7,8-dihydropyrido[2,3-d]-pyrimidin-2-yl)amino)-N-(2-(2-(2-((2-(2,6-dioxopiperidin-3-yl)-1,3-dioxoisoindolin-4-yl)-amino)ethoxy)ethoxy)ethyl)piperidine-1-sulfonamide] | 675 | 1810
6 | O=C1CCC(N2C(=O)c3cccc(CCCOCCOCCNS(=O)(=O)N4CCC(Nc5ncc6ccc(=O)n(C7CCCC7)c6n5)CC4)c3C2=O)C(=O)N1 (stereo not drawn) [Compound 11, 4-((8-cyclopentyl-7-oxo-7,8-dihydropyrido[2,3-d]pyrimidin-2-yl)amino)-N-(2-(2-(3-(2-(2,6-dioxopiperidin-3-yl)-1,3-dioxoisoindolin-4-yl)-propoxy)ethoxy)ethyl)piperidine-1-sulfonamide] | 499 | 2060
7 | O=C1CCC(N2C(=O)c3ccc(CN4CC(Oc5cccc(S(=O)(=O)N6CCC(Nc7ncc8ccc(=O)n(C9CCCC9)c8n7)CC6)c5)C4)cc3C2=O)C(=O)N1 (stereo not drawn) [Compound 17, 5-((3-(3-((4-((8-cyclopentyl-7-oxo-7,8-dihydro-pyrido[2,3-d]pyrimidin-2-yl)amino)piperidin-1-yl)sulfonyl)phenoxy)azetidin-1-yl)methyl)-2-(2,6-dioxopiperidin-3-yl)isoindoline-1,3-dione] | 450 | 245
8 | O=C1CCC(N2C(=O)c3ccc(N4CC(Oc5ccc(S(=O)(=O)N6CCC(Nc7ncc8ccc(=O)n(C9CCCC9)c8n7)CC6)cc5)C4)cc3C2=O)C(=O)N1 (stereo not drawn) [compound 7, 5-(3-(4-((4-((8-cyclopentyl-7-oxo-7,8-dihydro-pyrido[2,3-d]pyrimidin-2-yl)amino)piperidin-1-yl)sulfonyl)phenoxy)azetidin-1-yl)-2-(2,6-dioxopiperidin-3-yl)isoindoline-1,3-dione] | 99.9 | 1120
9 | CN1C(=O)CCC(N2C(=O)c3cccc(OCC(=O)NCCOCCN4CCN(S(=O)(=O)N5CCC(Nc6ncc7ccc(=O)n(C8CCCC8)c7n6)CC5)CC4)c3C2=O)C1=O (stereo not drawn) [compound 5, N-(2-(2-(4-((4-((8-cyclopentyl-7-oxo-7,8-dihydropyrido[2,3-d]pyrimidin-2-yl)amino)-piperidin-1-yl)sulfonyl)piperazin-1-yl)-ethoxy)ethyl)-2-((2-(1-methyl-2,6-dioxo-piperidin-3-yl)-1,3-dioxoisoindolin-4-yl)oxy)acetamide] | 4110 | 5860
10 | CN(C1CCC(Nc2cccc3c2C(=O)N(C2CCC(=O)NC2=O)C3=O)CC1)S(=O)(=O)N1CCC(Nc2ncc3ccc(=O)n(C4CCCC4)c3n2)CC1 (stereo not drawn) [Compound 15, 4-((8-cyclopentyl-7-oxo-7,8-dihydropyrido[2,3-d]pyrimidin-2-yl)amino)-N-(4-((2-(2,6-dioxo-piperidin-3-yl)-1,3-dioxoisoindolin-4-yl)amino)-cyclohexyl)-N-methylpiperidine-1-sulfonamide] | 356 | 2020

More lines, now with the values ahead:

Row | IC50 (CDK2 [1]) [nM] | IC50 (CDK2 [2]) [nM] | Structure (SMILES)
11 | 59 | 317 | Cn1c(=O)n(C2CCC(=O)NC2=O)c2cccc(C3CCN(C4CC5(C4)CN(S(=O)(=O)N4CCC(Nc6ncc7ccc(=O)n(C8CCCC8)c7n6)CC4)C5)CC3)c21 (stereo not drawn) [Compound 32, 3-(4-(1-(2-((4-((8-cyclopentyl-7-oxo-7,8-dihydro-pyrido[2,3-d]pyrimidin-2-yl)amino)piperidin-1-yl)sulfonyl)-2-azaspiro[3.3]heptan-6-yl)piperidin-4-yl)-3-methyl-2-oxo-2,3-dihydro-1H-benzo[d]imidazol-1-yl)piperidine-2,6-dione]
12 | 1670 | 2250 | O=C(COc1cccc2c1C(=O)N(C1CCC(=O)NC1=O)C2=O)NCCOCCOCCOCCOCCN1CCN(S(=O)(=O)N2CCC(Nc3ncc4ccc(=O)n(C5CCCC5)c4n3)CC2)CC1 (stereo not drawn) [compound 6, N-(14-(4-((4-((8-cyclopentyl-7-oxo-7,8-dihydro-pyrido[2,3-d]pyrimidin-2-yl)amino)-piperidin-1-yl)sulfonyl)piperazin-1-yl)-3,6,9,12-tetraoxatetradecyl)-2-((2-(2,6-dioxopiperidin-3-yl)-1,3-dioxoisoindolin-4-yl)oxy)acetamide]
13 | 791 | 3790 | CN(CCCOCCCc1cccc2c1C(=O)N(C1CCC(=O)NC1=O)C2=O)S(=O)(=O)N1CCC(Nc2ncc3ccc(=O)n(C4CCCC4)c3n2)CC1 (stereo not drawn) [Compound 10, 4-((8-cyclopentyl-7-oxo-7,8-dihydropyrido[2,3-d]-pyrimidin-2-yl)amino)-N-(3-(3-(2-(2,6-dioxo-piperidin-3-yl)-1,3-dioxoisoindolin-4-yl)-propoxy)propyl)-N-methylpiperidine-1-sulfonamide]
14 | 253 | 707 | CN(CCCOCCCc1cccc2c1n(C)c(=O)n2C1CCC(=O)NC1=O)S(=O)(=O)N1CCC(Nc2ncc3ccc(=O)n(C4CCCC4)c3n2)CC1 (stereo not drawn) [Compound 19, 4-((8-cyclopentyl-7-oxo-7,8-dihydropyrido[2,3-d]pyrimidin-2-yl)amino)-N-(3-(3-(1-(2,6-dioxo-piperidin-3-yl)-3-methyl-2-oxo-2,3-dihydro-1H-benzo[d]imidazol-4-yl)propoxy)propyl)-N-methylpiperidine-1-sulfonamide]
15 | 378 | 267 | O=C1CCC(N2C(=O)c3cc(F)c(N4CCN(Cc5cccc(S(=O)(=O)N6CCC(Nc7ncc8cc(C(F)F)c(=O)n(C9CCCC9)c8n7)CC6)c5)CC4)cc3C2=O)C(=O)N1 (stereo not drawn) [Compound 45, 5-(4-(3-((4-((8-cyclopentyl-6-(difluoromethyl)-7-oxo-7,8-dihydropyrido[2,3-d]pyrimidin-2-yl)-amino)piperidin-1-yl)sulfonyl)-benzyl)piperazin-1-yl)-2-(2,6-dioxopiperidin-3-yl)-6-fluoro-isoindoline-1,3-dione]
